How the values were obtained:
native whole human blood = test: In vitro whole blood clotting time (WBCT), native human blood; format: biochemical; parameters: unit not given here
Procedure: (§1) The antithrombin activity of the compounds of general formula (I) was determined by the usual method [Bagdy et al.: Thromb Haemostas 67, 325-330 (1992)] by measuring whole blood clotting time (WBCT), thrombin time (TT) and activated partial thromboplastin time (APTT). The in vitro activity of some compounds of the invention assayed on native human blood (non-anticoagulated clotting) (WBCT) and on citrated blood plasma (TT and APTT) is presented in Table 1.
(§2) ^2 WBCT = whole blood clotting time, TT = thrombin time, APTT =
(§3) activated partial thromboplastin time parameter. The figures represent
(§4) concentrations of the compounds required to double the clotting time of
(§5) native whole human blood or of citrated blood plasma.

citrated blood plasma [1] = test: In vitro thrombin time (TT), citrated blood plasma; format: biochemical, human; parameters: unit not given here
Procedure: as §1, §2, §3, §4, §5

citrated blood plasma [2] = test: In vitro activated partial thromboplastin time (APTT), citrated blood plasma; format: biochemical, human; parameters: unit not given here
Procedure: as §1, §2, §3, §4, §5

[3] = test system: fibrinolysis induced by tissue plasminogen activator; test: Fibrinolysis induced by tissue plasminogen activator, thromboelastogram; format: biochemical
Source text: The compounds of the general formula (I) inhibit clot formation without interfering with the natural lysis of blood clots in the body, e.g. fibrinolysis. […] Thromboelastography. In: Bang N. U., F. K. Beller, E. Deutsch, E. F. Mamman eds. Thrombosis and Bleeding Disorders. Theory and Methods. Academic Press, London, 1971: 70-76].

citrated plasma [4] = test: In vivo antithrombin effect in rabbits: activated partial thromboplastin time (APTT)
Procedure: (§6) The in vivo antithrombin effect of the compounds of general formula (I) was treated in rabbits by a known method [Bagdy et al: Thromb Haemost 67, 357-365 (1992)]. The compounds were applied in a dose of 0.5-3.0 mg/kg s.c. and 5-15 mg/kg p.o. The effect was already detectable 15-30 minutes after drug administration, peak effect was attained after 90-120 minutes but the therapeutic effect was dose dependently maintained during 3 to longer than 5 hours.
(§7) The in vivo antithrombin effect of 3-cyclohexyl-D-lactyl-L-prolyl-L-arginine aldehyde hemisulfate (Example 7.) is presented in detail in Tables 2 and 3. The compound was administered in doses of 10 and 15 mg/kg, resp., p.o. and the blood samples taken from the ear-vein of the animals were assayed in every 30 minutes. The whole blood clotting time (WBCT) and the inhibition of whole blood platelet aggregation induced by thrombin (IWBA) were determined. Furthermore the citrated plasma thrombin time (TT) of the blood sample and the activated partial thromboplastin time (APTT) were measured, too. The WBCT and APTT values are presented in Table 2 and the TT and IWBA values in Table 3.

whole blood clotting = test: In vivo antithrombin effect in rabbits: whole blood clotting time (WBCT)
Procedure: as §6, §7

citrated plasma [5] = test: In vivo antithrombin effect in rabbits: citrated plasma thrombin time (TT)
Procedure: as §6, §7

[6] = test system: whole blood platelet aggregation induced by thrombin; test: In vivo antithrombin effect in rabbits: inhibition of whole blood platelet aggregation induced by thrombin (IWBA)
Procedure: as §6, §7

SMILES: N=C(N)NCCC[C@@H](C=O)NC(=O)[C@H]1CCCN1C(=O)C(O)c1cccc2ccccc12.N=C(N)NCCC[C@@H](C=O)NC(=O)[C@H]1CCCN1C(=O)C(O)c1cccc2ccccc12.O=S(=O)(O)O (stereo partly drawn) [Example 14, D-2-(1-Naphthyl)-2-hydroxyacetyl-L-prolyl-L-arginine aldehyde hemisulfate]
- WBCT: concentration required to double the clotting time (native whole human blood): 1.04
- TT: concentration required to double the clotting time (citrated blood plasma [1]): 0.150
- APTT: concentration required to double the clotting time (citrated blood plasma [2]): 0.52

SMILES: N=C(N)NCCC[C@@H](C=O)NC(=O)[C@H]1CCCN1C(=O)C(O)C1CCCCC1.N=C(N)NCCC[C@@H](C=O)NC(=O)[C@H]1CCCN1C(=O)C(O)C1CCCCC1.O=S(=O)(O)O (stereo partly drawn) [Example 8, D-2-Cyclohexyl-2-hydroxyacetyl-L-prolyl-L-arginine aldehyde hemisulfate]
- WBCT: concentration required to double the clotting time (native whole human blood): 0.72
- TT: concentration required to double the clotting time (citrated blood plasma [1]): 0.100
- APTT: concentration required to double the clotting time (citrated blood plasma [2]): 0.35
- inhibitory effect on fibrinolysis induced by tissue plasminogen activator [3]: only negligible inhibitory effect

SMILES: N=C(N)NCCC[C@@H](C=O)NC(=O)[C@@H]1CCCN1C(=O)[C@H](O)CC1CCCCC1.N=C(N)NCCC[C@@H](C=O)NC(=O)[C@@H]1CCCN1C(=O)[C@H](O)CC1CCCCC1.O=S(=O)(O)O [Example 7, 3-Cyclohexyl-D-lactyl-L-prolyl-L-arginine aldehyde hemisulfate]
- WBCT: concentration required to double the clotting time (native whole human blood): 0.32
- TT: concentration required to double the clotting time (citrated blood plasma [1]): 0.072
- APTT (citrated plasma [4]; 10 mg/kg p.o., time 0 min): 27.7 ± 1.2 s
- APTT (citrated plasma [4]; 10 mg/kg p.o., time 30 min): 58.9 ± 9.0 s
- APTT (citrated plasma [4]; 10 mg/kg p.o., time 60 min): 77.6 ± 14.6 s
- APTT (citrated plasma [4]; 10 mg/kg p.o., time 90 min): 65.1 ± 8.4 s
- APTT (citrated plasma [4]; 10 mg/kg p.o., time 120 min): 55.1 ± 11.4 s
- APTT (citrated plasma [4]; 10 mg/kg p.o., time 150 min): 52.1 ± 6.6 s
- APTT (citrated plasma [4]; 10 mg/kg p.o., time 180 min): 53.8 ± 8.5 s
- APTT (citrated plasma [4]; 10 mg/kg p.o., time 210 min): 48.6 ± 3.8 s
- APTT (citrated plasma [4]; 10 mg/kg p.o., time 240 min): 47.7 ± 7.4 s
- APTT (citrated plasma [4]; 10 mg/kg p.o., time 270 min): 44.4 ± 3.7 s
- APTT (citrated plasma [4]; 10 mg/kg p.o., time 300 min): 43.7 ± 5.0 s
- APTT (citrated plasma [4]; 15 mg/kg p.o., time 0 min): 32.6 ± 4.6 s
- APTT (citrated plasma [4]; 15 mg/kg p.o., time 30 min): 115.0 ± 36.6 s
- APTT (citrated plasma [4]; 15 mg/kg p.o., time 60 min): 150.4 ± 30.9 s
- APTT (citrated plasma [4]; 15 mg/kg p.o., time 90 min): 170.3 ± 18.5 s
- APTT (citrated plasma [4]; 15 mg/kg p.o., time 120 min): 145.6 ± 22.7 s
- APTT (citrated plasma [4]; 15 mg/kg p.o., time 150 min): 149.2 ± 22.0 s
- APTT (citrated plasma [4]; 15 mg/kg p.o., time 180 min): 169.0 ± 23.0 s
- APTT (citrated plasma [4]; 15 mg/kg p.o., time 210 min): 137.7 ± 25.8 s
- APTT (citrated plasma [4]; 15 mg/kg p.o., time 240 min): 127.4 ± 25.7 s
- APTT (citrated plasma [4]; 15 mg/kg p.o., time 270 min): 133.4 ± 24.7 s
- APTT (citrated plasma [4]; 15 mg/kg p.o., time 300 min): 92.8 ± 18.4 s
- WBCT (whole blood clotting; 10 mg/kg p.o., time 0 min): 13.2 ± 1.1 min
- WBCT (whole blood clotting; 10 mg/kg p.o., time 30 min): 17.7 ± 1.6 min
- WBCT (whole blood clotting; 10 mg/kg p.o., time 60 min): 23.6 ± 1.9 min
- WBCT (whole blood clotting; 10 mg/kg p.o., time 90 min): 21.2 ± 2.9 min
- WBCT (whole blood clotting; 10 mg/kg p.o., time 120 min): 18.8 ± 1.0 min
- WBCT (whole blood clotting; 10 mg/kg p.o., time 150 min): 19.2 ± 1.1 min
- WBCT (whole blood clotting; 10 mg/kg p.o., time 180 min): 18.4 ± 1.5 min
- WBCT (whole blood clotting; 10 mg/kg p.o., time 210 min): 17.2 ± 2.3 min
- WBCT (whole blood clotting; 10 mg/kg p.o., time 240 min): 15.8 ± 1.7 min
- WBCT (whole blood clotting; 10 mg/kg p.o., time 270 min): 16.2 ± 2.1 min
- WBCT (whole blood clotting; 10 mg/kg p.o., time 300 min): 13.5 ± 0.9 min
- WBCT (whole blood clotting; 15 mg/kg p.o., time 0 min): 14.6 ± 0.4 min
- WBCT (whole blood clotting; 15 mg/kg p.o., time 30 min): 24.2 ± 4.7 min
- WBCT (whole blood clotting; 15 mg/kg p.o., time 60 min): 29.4 ± 4.5 min
- WBCT (whole blood clotting; 15 mg/kg p.o., time 90 min): 33.0 ± 5.9 min
- WBCT (whole blood clotting; 15 mg/kg p.o., time 120 min): 34.4 ± 4.4 min
- WBCT (whole blood clotting; 15 mg/kg p.o., time 150 min): 27.2 ± 3.6 min
- WBCT (whole blood clotting; 15 mg/kg p.o., time 180 min): 29.5 ± 2.7 min
- WBCT (whole blood clotting; 15 mg/kg p.o., time 210 min): 34.0 ± 5.9 min
- WBCT (whole blood clotting; 15 mg/kg p.o., time 240 min): 33.7 ± 6.5 min
- WBCT (whole blood clotting; 15 mg/kg p.o., time 270 min): 26.0 ± 1.2 min
- WBCT (whole blood clotting; 15 mg/kg p.o., time 300 min): 23.6 ± 3.3 min
- TT (citrated plasma [5]; 10 mg/kg p.o., time 0 min): 18.4 ± 2.1 s
- TT (citrated plasma [5]; 10 mg/kg p.o., time 30 min): 317.1 ± 123.0 s
- TT (citrated plasma [5]; 10 mg/kg p.o., time 60 min): 416.0 ± 107.2 s
- TT (citrated plasma [5]; 10 mg/kg p.o., time 90 min): 444.7 ± 108.6 s
- TT (citrated plasma [5]; 10 mg/kg p.o., time 120 min): 264.6 ± 101.3 s
- TT (citrated plasma [5]; 10 mg/kg p.o., time 150 min): 201.1 ± 109.9 s
- TT (citrated plasma [5]; 10 mg/kg p.o., time 180 min): 182.7 ± 113.6 s
- TT (citrated plasma [5]; 10 mg/kg p.o., time 210 min): 123.0 ± 65.3 s
- TT (citrated plasma [5]; 10 mg/kg p.o., time 240 min): 141.5 ± 81.3 s
- TT (citrated plasma [5]; 10 mg/kg p.o., time 270 min): 65.4 ± 25.7 s
- TT (citrated plasma [5]; 10 mg/kg p.o., time 300 min): 41.8 ± 11.4 s
- TT (citrated plasma [5]; 15 mg/kg p.o., time 0 min): 18.9 ± 2.1 s
- TT (citrated plasma [5]; 15 mg/kg p.o., time 30 min): 371.2 ± 142.3 s
- TT (citrated plasma [5]; 15 mg/kg p.o., time 60 min): 528.3 ± 72.9 s
- TT (citrated plasma [5]; 15 mg/kg p.o., time 90 min): 578.8 ± 21.5 s
- TT (citrated plasma [5]; 15 mg/kg p.o., time 120 min): > 600.0 ± 0 s
- TT (citrated plasma [5]; 15 mg/kg p.o., time 150 min): 549.6 ± 34.0 s
- TT (citrated plasma [5]; 15 mg/kg p.o., time 180 min): 380.7 ± 116.0 s
- TT (citrated plasma [5]; 15 mg/kg p.o., time 210 min): 342.1 ± 121.2 s
- TT (citrated plasma [5]; 15 mg/kg p.o., time 240 min): 340.9 ± 137.0 s
- TT (citrated plasma [5]; 15 mg/kg p.o., time 270 min): 376.4 ± 153.0 s
- TT (citrated plasma [5]; 15 mg/kg p.o., time 300 min): 261.0 ± 140.8 s
- APTT: concentration required to double the clotting time (citrated blood plasma [2]): 0.20
- IWBA ([6]; 10 mg/kg p.o., time 30 min): 89.4 ± 7.6%
- IWBA ([6]; 10 mg/kg p.o., time 60 min): 95.8 ± 6.9%
- IWBA ([6]; 10 mg/kg p.o., time 90 min): 81.6 ± 8.2%
- IWBA ([6]; 10 mg/kg p.o., time 120 min): 94.0 ± 3.2%
- IWBA ([6]; 10 mg/kg p.o., time 150 min): 71.4 ± 13.8%
- IWBA ([6]; 10 mg/kg p.o., time 180 min): 72.4 ± 19.2%
- IWBA ([6]; 10 mg/kg p.o., time 210 min): 54.4 ± 21.0%
- IWBA ([6]; 10 mg/kg p.o., time 240 min): 50.6 ± 17.7%
- IWBA ([6]; 10 mg/kg p.o., time 270 min): 35.2 ± 17.3%
- IWBA ([6]; 10 mg/kg p.o., time 300 min): 48.2 ± 16.9%
- IWBA ([6]; 15 mg/kg p.o., time 30 min): 81.4%
- IWBA ([6]; 15 mg/kg p.o., time 60 min): 97.4%
- IWBA ([6]; 15 mg/kg p.o., time 90 min): 100.0 ± 0%
- IWBA ([6]; 15 mg/kg p.o., time 120 min): 100.0 ± 0%
- IWBA ([6]; 15 mg/kg p.o., time 150 min): 100.0 ± 0%
- IWBA ([6]; 15 mg/kg p.o., time 180 min): 100.0 ± 0%
- IWBA ([6]; 15 mg/kg p.o., time 210 min): 93.7%
- IWBA ([6]; 15 mg/kg p.o., time 240 min): 82.6%
- IWBA ([6]; 15 mg/kg p.o., time 270 min): 81.0%
- IWBA ([6]; 15 mg/kg p.o., time 300 min): 69.6%
- inhibitory effect on fibrinolysis induced by tissue plasminogen activator [3]: only negligible inhibitory effect

SMILES: N=C(N)NCCC[C@@H](C=O)NC(=O)[C@H]1CCCN1C(=O)C(O)c1ccccc1.N=C(N)NCCC[C@@H](C=O)NC(=O)[C@H]1CCCN1C(=O)C(O)c1ccccc1.O=S(=O)(O)O (stereo partly drawn) [Example 6, D-2-Phenyl-2-hydroxyacetyl-L-prolyl-L-arginine aldehyde hemisulfate]
- WBCT: concentration required to double the clotting time (native whole human blood): 0.45
- TT: concentration required to double the clotting time (citrated blood plasma [1]): 0.040
- APTT: concentration required to double the clotting time (citrated blood plasma [2]): 0.15
- inhibitory effect on fibrinolysis induced by tissue plasminogen activator [3]: only negligible inhibitory effect

From US5760235A, “Anticoagulant peptide derivatives and pharmaceutical compositions containing the same as well as a process for preparation thereof” (Gyogyszerkutato Intezet Kft., priority 1992, dated 1998)
